# Source: patent publication US7491819B1 (priority 2004, dated 2009)
# Biological target: T1, HIV-integrase (Human immunodeficiency virus type 1 group M subtype B, UniProt P12497)
# T1 construct: Recombinant integrase (0.26 ng) was incubated with the beads
# Assay: HIV-Integrase Inhibition Activity (SPA bead strand-transfer assay)
# Type: biochemical
# Details: Table 1; read-out: Activity (HIV-integrase inhibition, IC50 class)
# Description: HIV-Integrase Inhibition Activity. To evaluate in-vitro activity against HIV-integrase, 5 pmole of biotin labeled substrate DNA was bound to 100 μg of Streptavidin coated PVT SPA beads (Amersham Pharmacia Biotech). Recombinant integrase (0.26 ng) was incubated with the beads for 90 min at 37° C. Unbound enzyme was removed by washing the complex followed by addition of inhibitors and 0.1 fmol of P33 labeled target DNA. The reaction was stopped by adding EDTA to a final concentration of 10 mM. Samples were counted in TopCountNXT (Packard) and the CPM was used as a measure of integration. The reaction condition was as described in A. Engelman and R. Craigie, J. Virol 69, 5908-5911 (1995). The sequences of substrate and target DNA were described in Nucleic Acid Research 22, 1121-1122 (1994).
row,Structure (SMILES),IC50 [nM]
1,"Cc1cc(F)ccc1CNC(=O)c1nc2n(c(=O)c1O)CCOC2(C)C [Example 39, Pyrimido[2,1-c][1,4]oxazine-2-carboxamide, N-[(4-fluoro-2-methylphenyl)methyl]-4,6,7,9-tetrahydro-3-hydroxy-9,9-dimethyl-4-oxo-]",2 to 100
2,"CC1(C)OCCn2c1nc(C(=O)NCc1ccc(F)c3ccccc13)c(O)c2=O [Example 40, Pyrimido[2,1-c][1,4]oxazine-2-carboxamide, N-[(4-fluoro-1-naphthalenyl)methyl]-4,6,7,9-tetrahydro-3-hydroxy-9,9-dimethyl-4-oxo-]",2 to 100
3,"COc1cc(F)ccc1CNC(=O)c1nc2n(c(=O)c1O)CCOC2(C)C [Example 41, Pyrimido[2,1-c][1,4]oxazine-2-carboxamide, N-[(4-fluoro-2-methoxyphenyl)methyl]-4,6,7,9-tetrahydro-3-hydroxy-9,9-dimethyl-4-oxo-]",2 to 100
4,"CCC1(CC)OCCn2c1nc(C(=O)NCc1ccc(F)cc1)c(O)c2=O [Example 42, Pyrimido[2,1-c][1,4]oxazine-2-carboxamide, 9,9-diethyl-N-[(4-fluorophenyl)methyl]-4,6,7,9-tetrahydro-3-hydroxy-4-oxo-]",2 to 100
5,CCC1(CC)OCCn2c1nc(C(=O)NCc1ccc(F)c(C)c1)c(O)c2=O [Example 43],2 to 100
6,"CC1(C)OCCCn2c1nc(C(=O)NCc1ccc(F)cc1)c(O)c2=O [Example 44, 6H-Pyrimido[2,1-c][1,4]oxazepine-2-carboxamide, N-[(4-fluorophenyl)methyl]-4,7,8,10-tetrahydro-3-hydroxy-10,10-dimethyl-4-oxo-]",2 to 100
7,"Cc1cc(CNC(=O)c2nc3n(c(=O)c2O)CCCOC3(C)C)ccc1F [Example 45, 6H-Pyrimido[2,1-c][1,4]oxazepine-2-carboxamide, N-[(4-fluoro-3-methylphenyl)methyl]-4,7,8,10-tetrahydro-3-hydroxy-10,10-dimethyl-4-oxo-]",2 to 100
8,"CC1(C)OCCn2c1nc(C(=O)NCc1ccc(F)cc1OCC(=O)N1CCOCC1)c(O)c2=O [Example 46, Pyrimido[2,1-c][1,4]oxazine-2-carboxamide, N-[[4-fluoro-2-[2-(4-morpholinyl)-2-oxoethoxy]phenyl]methyl]-4,6,7,9-tetrahydro-3-hydroxy-9,9-dimethyl-4-oxo-]",2 to 100
9,"COC(=O)c1cc(F)ccc1CNC(=O)c1nc2n(c(=O)c1O)CCOC2(C)C [Example 47, Benzoic acid, 5-fluoro-2-[[[(4,6,7,9-tetrahydro-3-hydroxy-9,9-dimethyl-4-oxopyrimido[2,1-c][1,4]oxazin-2-yl)carbonyl]amino]methyl]-, methyl ester]",2 to 100
10,"CC1(C)OCCn2c1nc(C(=O)NCc1ccc(F)cc1C(=O)O)c(O)c2=O [Example 48, Benzoic acid, 5-fluoro-2-[[[(4,6,7,9-tetrahydro-3-hydroxy-9,9-dimethyl-4-oxopyrimido[2,1-c][1,4]oxazin-2-yl)carbonyl]amino]methyl]-]",2 to 100
11,"CNC(=O)c1cc(F)ccc1CNC(=O)c1nc2n(c(=O)c1O)CCOC2(C)C [Example 49, Pyrimido[2,1-c][1,4]oxazine-2-carboxamide, N-[[4-fluoro-2-[(methylamino)carbonyl]phenyl]methyl]-4,6,7,9-tetrahydro-3-hydroxy-9,9-dimethyl-4-oxo-]",2 to 100
12,"CC1(C)OCCn2c1nc(C(=O)NCc1ccc(F)cc1C(=O)NC1CC1)c(O)c2=O [Example 50, Pyrimido[2,1-c][1,4]oxazine-2-carboxamide, N-[[2-[(cyclopropylamino)carbonyl]-4-fluorophenyl]methyl]-4,6,7,9-tetrahydro-3-hydroxy-9,9-dimethyl-4-oxo-]",2 to 100
13,"CC1(C)OCCn2c1nc(C(=O)NCc1ccc(F)cc1C(=O)NCCO)c(O)c2=O [Example 51, Pyrimido[2,1-c][1,4]oxazine-2-carboxamide, N-[[4-fluoro-2-[[(2-hydroxyethyl)amino]carbonyl]phenyl]methyl]-4,6,7,9-tetrahydro-3-hydroxy-9,9-dimethyl-4-oxo-]",2 to 100
14,"CC1(C)OCCn2c1nc(C(=O)NCc1ccc(F)cc1C(=O)N1CCOCC1)c(O)c2=O [Example 52, Pyrimido[2,1-c][1,4]oxazine-2-carboxamide, N-[[4-fluoro-2-(4-morpholinylcarbonyl)phenyl]methyl]-4,6,7,9-tetrahydro-3-hydroxy-9,9-dimethyl-4-oxo-]",2 to 100
15,"CC1(C)OCCn2c1nc(C(=O)NCc1ccc(F)cc1-n1ccnc1)c(O)c2=O [Example 53, Pyrimido[2,1-c][1,4]oxazine-2-carboxamide, N-[[4-fluoro-2-(1H-imidazol-1-yl)phenyl]methyl]-4,6,7,9-tetrahydro-3-hydroxy-9,9-dimethyl-4-oxo-]",2 to 100
16,"CC1(C)OCCn2c1nc(C(=O)NCc1cc(F)ccc1-n1cncn1)c(O)c2=O [Example 54, Pyrimido[2,1-c][1,4]oxazine-2-carboxamide, N-[[5-fluoro-2-(1H-1,2,4-triazol-1-yl)phenyl]methyl]-4,6,7,9-tetrahydro-3-hydroxy-9,9-dimethyl-4-oxo-e]",2 to 100
17,"CC1(C)OCCn2c1nc(C(=O)NCc1cccc(F)c1N1CCCCS1(=O)=O)c(O)c2=O [Example 55, Pyrimido[2,1-c][1,4]oxazine-2-carboxamide, N-[[3-fluoro-2-(tetrahydro-1,1-dioxido-2H-1,2-thiazin-2-yl)phenyl]methyl]-4,6,7,9-tetrahydro-3-hydroxy-9,9-dimethyl-4-oxo-]",2 to 100
18,"CC1(C)OCCn2c1nc(C(=O)NCc1cccc(F)c1-n1cncn1)c(O)c2=O [Example 56, Pyrimido[2,1-c][1,4]oxazine-2-carboxamide, N-[[3-fluoro-2-(1H-1,2,4-triazol-1-yl)phenyl]methyl]-4,6,7,9-tetrahydro-3-hydroxy-9,9-dimethyl-4-oxo-]",2 to 100
19,"CC1(C)OCCn2c1nc(C(=O)NCc1ccc(F)cc1-n1nccn1)c(O)c2=O [Example 57, Pyrimido[2,1-c][1,4]oxazine-2-carboxamide, N-[[4-fluoro-2-(2H-1,2,3-triazol-2-yl)phenyl]methyl]-4,6,7,9-tetrahydro-3-hydroxy-9,9-dimethyl-4-oxo-]",2 to 100
20,"CC1(C)OCCn2c1nc(C(=O)NCc1ccc(-n3nccn3)cc1F)c(O)c2=O [Example 58, Pyrimido[2,1-c][1,4]oxazine-2-carboxamide, N-[[2-fluoro-4-(2H-1,2,3-triazol-2-yl)phenyl]methyl]-4,6,7,9-tetrahydro-3-hydroxy-9,9-dimethyl-4-oxo-]",2 to 100
21,"CC1(C)OCCn2c1nc(C(=O)NCc1ccc(F)cc1Br)c(O)c2=O [Example 59, Pyrimido[2,1-c][1,4]oxazine-2-carboxamide, N-[(2-bromo-4-fluorophenyl)methyl]-4,6,7,9-tetrahydro-3-hydroxy-9,9-dimethyl-4-oxo-]",2 to 100
22,"COC(=O)c1ncn(-c2cc(F)ccc2CNC(=O)c2nc3n(c(=O)c2O)CCOC3(C)C)n1 [Example 60, 1H-1,2,4-Triazole-3-carboxylic acid, 1-[5-fluoro-2-[[[(4,6,7,9-tetrahydro-3-hydroxy-9,9-dimethyl-4-oxopyrimido[2,1-c][1,4]oxazin-2-yl)carbonyl]amino]methyl]phenyl], methyl este]",2 to 100
23,"CC1(C)OCCn2c1nc(C(=O)NCc1ccc(F)cc1-n1cnc(C(=O)O)n1)c(O)c2=O [Example 61, 1H-1,2,4-Triazole-3-carboxylic acid, 1-[5-fluoro-2-[[[(4,6,7,9-tetrahydro-3-hydroxy-9,9-dimethyl-4-oxopyrimido[2,1-c][1,4]oxazin-2-yl)carbonyl]amino]methyl]phenyl]-]",2 to 100
24,"CC1(C)OCCn2c1nc(C(=O)NCc1ccc(F)cc1-n1cnc(C(=O)N3CCOCC3)n1)c(O)c2=O [Example 62, Pyrimido[2,1-c][1,4]oxazine-2-carboxamide, N-[[4-fluoro-2-[3-(4-morpholinylcarbonyl)-1H-1,2,4-triazol-1-yl]phenyl]methyl]-4,6,7,9-tetrahydro-3-hydroxy-9,9-dimethyl-4-oxo-]",2 to 100
25,"CN(C)C(=O)c1ncn(-c2cc(F)ccc2CNC(=O)c2nc3n(c(=O)c2O)CCOC3(C)C)n1 [Example 63, Pyrimido[2,1-c][1,4]oxazine-2-carboxamide, N-[[2-[3-[(dimethylamino)carbonyl]-1H-1,2,4-triazol-1-yl]-4-fluorophenyl]methyl]-4,6,7,9-tetrahydro-3-hydroxy-9,9-dimethyl-4-oxo-]",2 to 100
26,"CC1(C)OCCn2c1nc(C(=O)NCc1ccc(F)cc1-n1cnc(C(=O)NS(C)(=O)=O)n1)c(O)c2=O [Example 64, Pyrimido[2,1-c][1,4]oxazine-2-carboxamide, N-[[4-fluoro-2-[3-[[(methylsulfonyl)amino]carbonyl]-1H-1,2,4-triazol-1-yl]phenyl]methyl]-4,6,7,9-tetrahydro-3-hydroxy-9,9-dimethyl-4-oxo-]",2 to 100
27,"CNC(=O)c1ncn(-c2cc(F)ccc2CNC(=O)c2nc3n(c(=O)c2O)CCOC3(C)C)n1 [Example 65, Pyrimido[2,1-c][1,4]oxazine-2-carboxamide, 4,6,7,9-tetrahydro-3-hydroxy-N-[(1R)-2-hydroxy-1-phenylethyl]-9,9-dimethyl-4-oxo-]",2 to 100
28,"CC(=O)N1CCN(C(=O)c2ncn(-c3cc(F)ccc3CNC(=O)c3nc4n(c(=O)c3O)CCOC4(C)C)n2)CC1 [Example 66, Pyrimido[2,1-c][1,4]oxazine-2-carboxamide, N-[[2-[3-[(4-acetyl-1-piperazinyl)carbonyl]-1H-1,2,4-triazol-1-yl]-4-fluorophenyl]methyl]-4,6,7,9-tetrahydro-3-hydroxy-9,9-dimethyl-4-oxo-]",2 to 100
